From patent US8633245B2, “PAI-1 inhibitor” (Institute of Medicinal Molecular Design, Inc., priority 2008, dated 2014)

Columns and labels:
recombinant human PAI-1 [1] = target: T1, recombinant human PAI-1 (Homo sapiens, UniProt P05121); test: Test Example 2: human PAI-1 inhibitory activity (tPA fluorogenic substrate, pH 7.4 HEPES buffer); type: biochemical; details: for IC50: human PAI-1, calculated from the inhibition rates
T1 construct: purchased Molecular Innovations, Inc
Method: 0.1 M HEPES, 0.1 M NaCl. 1 mM EDTA. 0.1% Polyethylene glycol 8,000 (Hampton Research Corporation),
2 mM Dimethyldecylphoshine oxide [Apo-10] (Fluka Corporation)

recombinant rat PAI-1 = target: T2, recombinant rat PAI-1 (Rattus norvegicus, UniProt P20961); test: Test Example 3: rat PAI-1 inhibitory activity (as Test Example 2 with rat PAI-1); type: biochemical; details: rat PAI-1; for IC50: calculated from the inhibition rates
T2 construct: purchased Molecular Innovations, Inc
T2 sequence (P20961 24-402): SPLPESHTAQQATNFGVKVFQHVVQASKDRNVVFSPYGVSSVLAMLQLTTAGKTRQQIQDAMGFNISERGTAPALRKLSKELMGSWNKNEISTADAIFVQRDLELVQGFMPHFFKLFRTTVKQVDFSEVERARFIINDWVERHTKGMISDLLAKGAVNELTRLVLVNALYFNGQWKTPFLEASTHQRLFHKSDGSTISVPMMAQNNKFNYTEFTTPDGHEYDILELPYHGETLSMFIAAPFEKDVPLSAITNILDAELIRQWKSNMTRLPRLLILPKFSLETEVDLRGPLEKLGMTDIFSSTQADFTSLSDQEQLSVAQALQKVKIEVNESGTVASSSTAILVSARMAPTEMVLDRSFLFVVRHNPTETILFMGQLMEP
Method: To this solution, 6 μl of 80 nM recombinant human PAI-1 (Molecular Innovations, Inc.) solution prepared with Tris buffer was added, and the plate was incubated for 5 minutes at room temperature. Furthermore, 30 μl of 800 IU/ml two-chain tPA (Activity Standard; American diagnostica, inc.) prepared with Tris buffer was added, and the mixed solution was incubated for 15 minutes at room temperature. Then, 30 μl of 400 μM fluorogenic substrate (Pyr-Gly-Arg-MCA; Peptide Institute, Inc.) for tPA prepared with Tris buffer was added and reacted for 30 minutes at room temperature.

recombinant human PAI-1 [2] = target: T1, recombinant human PAI-1; test: Test Example 4: human PAI-1 inhibitory activity (amount of PAI-1 bound to plate-coated tPA, ELISA); type: binding; details: read-out: Inhibition Rate of PAI-1 Activity (%)
Method: 100 μl of tPA solution, where one-chain recombinant tPA (hereinafter referred to as tPA; American diagnostica, inc.) had been diluted with Buffer A to achieve a concentration of 10 μg/ml, was added to each well of a 96-well plate (Nunc Maxisorp), and the plate was incubated for one night at 4° C. to be coated with tPA. Then, after suction of tPA solution from the 96-well plate, the plate was rinsed successively with Buffer A and Buffer B.
To Buffer B, solutions of the compound according to the present invention dissolved with DMSO (final DMSO concentration: 0.2%) and recombinant human PAI-1 (Molecular Innovations, Inc.) were added. The mixtures were blended so that the final concentrations would be 0.1 to 3.0 μM and 50 ng/ml respectively, and were incubated for 15 minutes on ice. These mixed solutions were added to the rinsed 96-well plate at 100 μl/well, and incubated for 60 minutes at room temperature. To prepare a calibration curve, PAI-1 solutions without the compound according to the present invention (solutions where the final concentrations being 100, 50, 25, 12.5, 6.25, 3.13, or 1.56 ng/ml PAI-1) were added at 100 μl/well, and the plate was incubated for 60 minutes at room temperature, as standard.
After incubation, the reaction mixture was removed by suction, and each well was rinsed with Wash Buffer. Next, anti-human PAI-1 monoclonal antibody (PROGEN Inc.) diluted with Buffer C to be 3.0 μg/ml was added to the 96-well plate at 100 μl/well, and the plate was incubated for 1 hour at room temperature. After rinsing each well with Wash Buffer, alkaline phosphatase-labeled goat anti-mouse IgG (H+L) (Jackson ImmunoResearch, Inc.) diluted with Buffer D to be 0.12 μg/ml was added at 100 μl/well, and the plate was incubated for 1 hour at room temperature. After rinsing each well with Wash Buffer, 1.0 mg/ml p-Nitrophenyl Phosphate (SIGMA) was added to the 96-well plate at 100 μl/well to start the reaction. After 30 to 60 minutes, 25 μl of 0.5 N NaOH was added to stop the reaction, and the absorbance was measured at 405 nm using a multiplate reader (GENios; TECAN G.M.B.H.). Based on the calibration curve prepared from the standard wells, amounts of PAI-1 bound to tPA in the wells that had been treated with the compound according to the present invention were calculated, and the PAI-1 inhibition rates by the compounds according to the present invention were obtained by the following equation. [PAI-1 Inhibition Rate (%)]=[1−(amount of PAI-1 bound to tPA on the well by treatment with the compound according to the present invention)/(amount of PAI-1 bound to tPA on the well by treatment with PAI-1 solution not including the compound according to the present invention (solution having the final concentration of 50 ng/ml PAI-1)]×100

recombinant human PAI-1 [3] = target: T1, recombinant human PAI-1; test: Test Example 1: human PAI-1 inhibitory activity (tPA fluorogenic substrate, pH 7.5 Tris buffer); type: biochemical
Method: 50 mM Tris, 150 mM NaCl, 10 μg/ml BSA, 0.01% Tween80 (SIGMA-ALDRICH Corporation)

thrombus in AV shunt = test: Test Example 5: anti-thrombotic activity (rat AV shunt model); type: in vivo; details: mean ± S.E., n=5, vehicle 72.7 ± 2.7
Method: AV shunt model using 7-week old male Crlj: CD (SD) rats were prepared, and anti thrombotic activities when the compounds according to the present invention were administered orally were examined.
Required amount of the test compounds were weighed and suspended by adding 0.5% CMC (carboxymethylcellulose)-Na solution little by little, and the solutions (10 mg/kg or 30 mg/kg solution) were prepared so that their final concentration became 2 mg/ml or 6 mg/ml using a graduated cylinder. 5 ml was prepared for 1 course.
To 7-week old Crlj: CD (SD) male rats, 5 ml/kg of vehicle (0.5% CMC-Na solution) or 5 ml/kg of the administering solution of the test compound (10 mg/kg or 30 mg/kg) were administered orally for 4 days. The administration on the 4th day was carried out about 1 hour before the following perfusion start.
On the connected part where the silk thread was through, parafilm was wrapped around to avoid blood leakage.
Rats were anesthetized with pentobarbital (50 mg/kg; intraperitoneally). Saline was filled in the above catheter, and each of the ends of the catheter was inserted in right carotid artery and left carotid artery, respectively, and blood was circulated. 30 minutes later, the catheter was pinched with forceps to stop blood flow, and tube parts where the silk thread was through were cut and removed. The silk thread was carefully removed from the tubes, remaining wet weight was weighed after removing the liquid phase with filter paper, and further subtraction of the weight of the silk thread, gave the thrombus weight.
For the thrombus weight in each group, an average value±standard error (S.E.) was calculated. For the significance test between the vehicle administered group and the compound according to the present invention administered group, Dunnett's multiple comparison was carried out (significance level 5%). For the test, the SAS System Release 8.2 (TS2M0) for Windows (Registered Trademark) (SAS Institute Inc.) and its cooperative system EXSAS Ver. 7.10 (Arm Systex Co. Ltd.) were employed.

[4] = Compound Concentration 5 μM, Tris buffer
[5] = Compound Concentration 10 μM, Tris buffer
[6] = Compound Concentration 25 μM, Tris buffer
[7] = Compound Concentration 0.1 μM, HEPES buffer
[8] = Compound Concentration 0.3 μM, HEPES buffer
[9] = Compound Concentration 1 μM, HEPES buffer
[10] = Compound Concentration 3 μM, HEPES buffer
[11] = read-out: Inhibition Rate of PAI-1 Activity (%)

T1 sequence (P05121 24-402): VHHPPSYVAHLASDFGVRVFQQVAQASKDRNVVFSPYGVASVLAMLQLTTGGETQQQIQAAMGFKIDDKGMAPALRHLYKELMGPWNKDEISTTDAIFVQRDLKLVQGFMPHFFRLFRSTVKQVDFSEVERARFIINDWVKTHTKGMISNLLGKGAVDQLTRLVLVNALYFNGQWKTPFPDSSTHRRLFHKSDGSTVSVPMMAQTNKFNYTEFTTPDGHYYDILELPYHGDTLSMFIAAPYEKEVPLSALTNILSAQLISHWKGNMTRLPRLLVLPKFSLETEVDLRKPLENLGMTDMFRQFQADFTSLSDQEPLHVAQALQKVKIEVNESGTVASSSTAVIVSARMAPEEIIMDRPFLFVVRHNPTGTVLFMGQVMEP

Structure (SMILES)	IC50 (recombinant human PAI-1 [1]) [nM]	IC50 (recombinant rat PAI-1) [nM]	Inhibition Rate of PAI-1 Activity (%) (recombinant human PAI-1 [3]; [4])	Inhibition Rate of PAI-1 Activity (%) (recombinant human PAI-1 [3]; [5])	Inhibition Rate of PAI-1 Activity (%) (recombinant human PAI-1 [1]; [7])	Inhibition Rate of PAI-1 Activity (%) (recombinant human PAI-1 [1]; [8])	Inhibition Rate of PAI-1 Activity (%) (recombinant human PAI-1 [1]; [9])	Inhibition Rate of PAI-1 Activity (%) (recombinant human PAI-1 [1]; [10])	Inhibition Rate of PAI-1 Activity (%) (recombinant rat PAI-1; compound concentration 0.3 μM)	Inhibition Rate of PAI-1 Activity (%) (recombinant rat PAI-1; compound concentration 1 μM)	Inhibition Rate of PAI-1 Activity (%) (recombinant rat PAI-1; compound concentration 3 μM)	Inhibition Rate of PAI-1 Activity (%) (recombinant rat PAI-1; compound concentration 10 μM)	also measured
O=C(O)CCc1cc(-c2ccc(OC(F)(F)F)cc2)ccc1OCCCCc1ccccc1 [Compound 102]	1320	2750											inhibition at 1 µM (recombinant human PAI-1 [2]): 0%
CCCCc1ccc(COc2ccc(-c3ccc(OC(F)(F)F)cc3)cc2CCC(=O)O)cc1 [Compound 30]			29	70	0	5	25	92	0	5	47	89	Inhibition Rate of PAI-1 Activity (%) (recombinant human PAI-1 [3]; [6]): >99%
CN(C(=O)C(=O)O)c1cc(-c2ccc(OC(F)(F)F)cc2)ccc1OCc1ccc(C(C)(C)C)cc1 [Compound 17]			37	67									Thrombus Weight (thrombus in AV shunt; 30 mg/kg/day orally for 4 days): 60.4 ± 3.8 mg; Inhibition Rate of PAI-1 Activity (%) (recombinant human PAI-1 [3]; [6]): 97%
CC(C)(C)c1ccc(COc2ccc(-c3ccc(OC(F)(F)F)cc3)cc2OCC(=O)O)cc1 [Compound 105]	1070	2190											inhibition at 25 µM (recombinant human PAI-1 [3]; [11]): > 99%
CC(C)(C)c1ccc(CN(C(=O)C(=O)O)c2ccc(OCc3ccccc3)c(-c3ccc(OC(F)(F)F)cc3)c2)cc1 [Compound 212]			78	95	5	15	64	98	8	40	73	67	
CCN(CC)c1ccc(N(Cc2ccc(C(C)(C)C)cc2)C(=O)C(=O)O)c(-c2ccc(OC(F)(F)F)cc2)c1 [Compound 208]													inhibition at 1 µM (recombinant human PAI-1 [2]): 13%
CCN(CC)c1ccc(N(Cc2ccc(C(C)(C)C)cc2)C(=O)C(=O)O)cc1-c1ccc(OC(F)(F)F)cc1 [Compound 213]			93	84	0	10	48	98	8	26	90	78	
CC(C)Oc1ccc(N(Cc2ccc(C(C)(C)C)cc2)C(=O)C(=O)O)cc1-c1ccc(OC(F)(F)F)cc1 [Compound 211]			87	96	9	16	43	96	4	17	78	87	
CCC(CC)Oc1ccc(-c2ccc(OC(F)(F)F)cc2)cc1N(CCCc1ccccc1)C(=O)C(=O)O [Compound 233]	900	1460											inhibition at […] (recombinant human PAI-1 [3]; Compound Concentration 2.5 μM, Tris buffer, read-out: Inhibition Rate of PAI-1 Activity (%)): 49%; inhibition at 5 µM (recombinant human PAI-1 [3]; Compound Concentration 5 μM, Tris buffer, read-out: Inhibition Rate of PAI-1 Activity (%)): 78%; inhibition at 10 µM (recombinant human PAI-1 [3]; Compound Concentration 10 μM, Tris buffer, read-out: Inhibition Rate of PAI-1 Activity (%)): 93%; inhibition at 0.1 µM (recombinant human PAI-1 [1]; Compound Concentration 0.1 μM, HEPES buffer, read-out: Inhibition Rate of PAI-1 Activity (%)): 0%; inhibition at 0.3 µM (recombinant human PAI-1 [1]; Compound Concentration 0.3 μM, HEPES buffer, read-out: Inhibition Rate of PAI-1 Activity (%)): 9%; inhibition at 1 µM (recombinant human PAI-1 [1]; Compound Concentration 1 μM, HEPES buffer, read-out: Inhibition Rate of PAI-1 Activity (%)): 55%; inhibition at 3 µM (recombinant human PAI-1 [1]; Compound Concentration 3 μM, HEPES buffer, read-out: Inhibition Rate of PAI-1 Activity (%)): 97%; inhibition at 0.3 µM (recombinant rat PAI-1; compound concentration 0.3 μM, read-out: Inhibition Rate of PAI-1 Activity (%)): 4%; inhibition at 1 µM (recombinant rat PAI-1; compound concentration 1 μM, read-out: Inhibition Rate of PAI-1 Activity (%)): 20%; inhibition at 3 µM (recombinant rat PAI-1; compound concentration 3 μM, read-out: Inhibition Rate of PAI-1 Activity (%)): 93%; inhibition at 10 µM (recombinant rat PAI-1; compound concentration 10 μM, read-out: Inhibition Rate of PAI-1 Activity (%)): > 99%; inhibition at 0.3 µM (recombinant human PAI-1 [2]; Compound Concentration 0.3 μM): 13%; inhibition at 1 µM (recombinant human PAI-1 [2]; Compound Concentration 1 μM): 28%; inhibition at 3 µM (recombinant human PAI-1 [2]; Compound Concentration 3 μM): 50%
CC(C)(C)c1ccc(COc2ccc(-c3ccc(OC(F)(F)F)cc3)cc2CCC(=O)O)cc1 [Compound 5]													Thrombus Weight (thrombus in AV shunt; 10 mg/kg/day orally for 4 days): 57.5 ± 5.0 mg
CC(C)c1ccc(Oc2ccc(CCC(=O)O)c(Oc3ccc(C(C)C)cc3)c2)cc1 [Compound 73]	1270	2100											inhibition at 25 µM (recombinant human PAI-1 [3]; [11]): > 99%
CC(C)(C)c1ccc(CN(C(=O)C(=O)O)c2ccc(-c3ccc(OC(F)(F)F)cc3)cc2)cc1 [Compound 129]													Thrombus Weight (thrombus in AV shunt; 10 mg/kg/day orally for 4 days): 56.7 ± 3.8 mg
